Measured values: ChEMBL document CHEMBL1201862, “PubChem BioAssay data set” (2004)
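In this assay, cells in 96-well plates receive the compound at five concentrations for 48 hours. Endpoints are linearly interpolated between the surrounding concentrations. The concentration for 50% growth inhibition is given as GI50.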 Active and inactive are the calls of the source. Cut-off read from the data, not from the text of the source: active = GI50 up to about 1.1 µM and inactive = higher.

Legend:
Assay in all cases: DTP human tumour cell line panel, 48 h
MDA-MB-231 = system: MDA-MB-231
RXF 393 = system: RXF 393
SK-MEL-28 = system: SK-MEL-28
Hs-578T = system: Hs-578T
HCC 2998 = system: HCC 2998
M14 = system: M14
786-0 = system: 786-0
SNB-75 = system: SNB-75
CAKI-1 = system: CAKI-1
HCT-116 = system: HCT-116
U-251 = system: U-251
OVCAR-4 = system: OVCAR-4
OVCAR-5 = system: OVCAR-5
SR = system: SR
KM12 = system: KM12
CCRF-CEM = system: CCRF-CEM
SF-268 = system: SF-268
SF-295 = system: SF-295
NCI-H460 = system: NCI-H460
HT-29 = system: HT-29

Measured: GI50

Cc1ccc(NC(=O)/C(=N\NC(N)=O)c2c(O)c3ccccc3[nH]c2=O)cc1
inactive: MDA-MB-231 > 100 µM | RXF 393 > 100 µM | SK-MEL-28 > 100 µM | Hs-578T > 100 µM | HCC 2998 > 100 µM | M14 > 100 µM | 786-0 > 100 µM | SNB-75 99.8 µM | CAKI-1 > 100 µM | HCT-116 > 100 µM | U-251 > 100 µM | OVCAR-4 > 100 µM | OVCAR-5 > 100 µM | SR > 100 µM | KM12 > 100 µM | CCRF-CEM > 100 µM | SF-268 > 100 µM | SF-295 > 100 µM | NCI-H460 > 100 µM | HT-29 > 100 µM
